In brackets after ≈: the same amount, converted by molar mass. A value given as a limit tells only on which side of the number the result lay.

Assay in all cases: ≥ marks a high value that may be exact or a test limit, other limits are often not marked, values filed in µg/mL are converted to µM
For test [1], the system named is Acinetobacter sp.
Test [2] relates to Escherichia coli NCTC 10418.
Test [3] deals with Escherichia coli NCTC 8007.
Test [4] has as its system Klebsiella aerogenes.
In test [5] the test system is Klebsiella sp.
In test [6] the test system is Proteus mirabilis.
The test system of test [7] is Providencia stuartii.
Test [8] relates to Staphylococcus aureus NCTC 10571.
Test [9] relates to Acinetobacter baumannii ATCC 17978.
Test [10] deals with Bacillus subtilis C626.
For test [11], the system named is Candida albicans ATCC 64550.
The subject of test [12] is Enterobacter cloacae 218R.
The subject of test [13] is Enterococcus faecalis ATCC 29212.
For test [14], the system named is Enterococcus faecalis W61950.
The test system of test [15] is Enterococcus faecalis f43559.
Test [16] concerns Enterococcus faecium mic80.
Test [17] deals with Enterococcus faecium t62764.
Test [18] deals with Escherichia coli ESBL 63103.
Test [19] deals with Escherichia coli ESBL 64771.
Test [20] deals with Escherichia coli O157:H7.
For test [21], the system named is Klebsiella pneumoniae ESBL 61962.
For test [22], the system named is Klebsiella pneumoniae ESBL 63575.
In test [23] the test system is Pseudomonas aeruginosa 198.
For test [24], the system named is Pseudomonas aeruginosa 213.
Test [25] relates to Pseudomonas aeruginosa 9.
The test system of test [26] is Pseudomonas aeruginosa H1001.
For test [27], the system named is Pseudomonas aeruginosa H1027.
For test [28], the system named is Pseudomonas aeruginosa H1030.
Test [29] deals with Pseudomonas aeruginosa LES400.
For test [30], the system named is Pseudomonas aeruginosa PAO1 H103.
The test system of test [31] is Staphylococcus aureus ATCC 25923.
The subject of test [32] is Staphylococcus aureus C622.
In test [33] the test system is Staphylococcus aureus C623.
The test system of test [34] is Stenotrophomonas maltophilia ATCC 13637.
The subject of test [35] is Aspergillus niger ATCC 16404.
For test [36], the system named is Bacillus cereus.
In test [37] the test system is Candida albicans ATCC 10231.
Test [38] concerns Candida glabrata ATCC 15126.
Test [39] has as its system Enterococcus faecalis PCM 2673.
Test [40] relates to Escherichia coli ATCC 23506.
Test [41] relates to Escherichia coli ATCC 25922.
Test [42] concerns Escherichia coli.
Test [43] relates to Klebsiella pneumoniae ATCC 700603.
The subject of test [44] is Leuconostoc lactis.
Test [45] deals with Listeria innocua.
Test [46] deals with Micrococcus luteus.
Test [47] relates to Pasteurella multocida.
Test [48] concerns Pseudomonas aeruginosa ATCC 9027.
The subject of test [49] is Staphylococcus aureus ATCC 9144.
Test [50] has as its system Staphylococcus aureus.
Test [51] concerns Staphylococcus epidermidis.
Test [52] has as its system Streptococcus pneumoniae ATCC 49619.
Test [53] concerns Streptococcus uberis.

Broadly, the MIC is the lowest concentration found to suppress growth. On to `CSCC[C@H](NC(=O)[C@H](CC(N)=O)NC(=O)[C@H](CCCN=C(N)N)NC(=O)[C@H](CCC(N)=O)NC(=O)[C@H](Cc1c[nH]c2ccccc12)NC(=O)[C@H](CCC(N)=O)NC(=O)[C@@H](N)Cc1ccccc1)C(=O)N[C@@H](CCCN=C(N)N)C(=O)N[C@@H](CCCCN)C(=O)N[C@H](C(=O)N[C@@H](CCCN=C(N)N)C(=O)O)C(C)C` [FQWQRNMRKVR], for which the MIC in test [1] is 0.86 µM (≈ 1.33 µg/mL); in test [2], ≥ 579 µM; in [3], ≥ 290 µM; in test [4], ≥ 290 µM; in test [5], ≥ 290 µM; in test [6], ≥ 1000 µM. The minimum inhibitory concentration (MIC) in test [7] was ≥ 1000 µM; in test [8], 14 µM (≈ 21.7 µg/mL).
As for `CC[C@H](C)[C@H](NC(=O)[C@H](Cc1c[nH]c2ccccc12)NC(=O)[C@H](CCCCN)NC(=O)[C@H](Cc1c[nH]c2ccccc12)NC(=O)[C@H](Cc1c[nH]c2ccccc12)NC(=O)[C@H](CCCNC(=N)N)NC(=O)[C@@H](N)CCCCN)C(=O)N[C@@H](CCCNC(=N)N)C(=O)N[C@@H](Cc1c[nH]c2ccccc12)C(=O)O` [KRWWKWIRW], the MIC in test [9] is 5 µM (≈ 7.22 µg/mL); in test [10] it was 20 µM (≈ 28.9 µg/mL); in test [11] it was ≥ 100 µM; in test [12] it was 3 µM (≈ 4.33 µg/mL); in test [13], 12 µM (≈ 17.3 µg/mL); in test [14] it was ≥ 99 µM. The MIC in test [15] was ≥ 49 µM; in [16] it was 3.1 µM (≈ 4.48 µg/mL); in test [17], 1.5 µM (≈ 2.17 µg/mL); in test [18] it was 1.5 µM (≈ 2.17 µg/mL); in test [19], 1.5 µM (≈ 2.17 µg/mL); in [20] it was 1.25 µM (≈ 1.81 µg/mL). In addition, the MIC in test [21] is 25 µM (≈ 36.1 µg/mL); in test [22], 6.2 µM (≈ 8.96 µg/mL); in [23], 1.5 µM (≈ 2.17 µg/mL); in test [24], 3 µM (≈ 4.33 µg/mL); in test [25] it was 5.9 µM (≈ 8.52 µg/mL); in test [26], 0.554 µM (≈ 0.8 µg/mL). For the same compound, the MIC in [27] worked out at 0.8 µM (≈ 1.16 µg/mL); in test [28], 3 µM (≈ 4.33 µg/mL); in test [29] it was 5.9 µM (≈ 8.52 µg/mL); in test [30], 0.8 µM (≈ 1.16 µg/mL); in test [31], 3 µM (≈ 4.33 µg/mL); in test [32] it was 5 µM (≈ 7.22 µg/mL). Moreover, the MIC in test [33] was determined as 1.5 µM (≈ 2.17 µg/mL); in test [34], 0.4 µM (≈ 0.578 µg/mL).
With `CC[C@H](C)[C@H](NC(=O)CNC(=O)CNC(=O)[C@@H](N)CC(C)C)C(=O)N[C@H](C(=O)N[C@@H](CO)C(=O)N[C@@H](C)C(=O)N[C@H](C(=O)N[C@@H](CCCCN)C(=O)N[C@@H](CCCCN)C(=O)N[C@H](C(=O)N[C@H](C(=O)N[C@@H](CC(=O)O)C(=O)N[C@@H](Cc1ccccc1)C(=O)N[C@@H](CC(C)C)C(=O)NCC(N)=O)C(C)C)[C@@H](C)CC)C(C)C)C(C)C` [LGGIVSAVKKIVDFLG], the MIC in test [35] was ≥ 158 µM; in [36], ≥ 61.9 µM; in test [37] it was 79.2 µM (≈ 128 µg/mL); in test [38], ≥ 158 µM; in [39], ≥ 79.2 µM; in test [40], ≥ 79.2 µM. The MIC in [41] is 39.6 µM (≈ 64 µg/mL); in test [42] it was > 61.9 µM; in test [43] it was 19.8 µM (≈ 32 µg/mL); in test [44] it was 7.43 µM (≈ 12 µg/mL); in [45], ≥ 61.9 µM; in test [46], ≥ 61.9 µM. Also, the MIC is ≥ 61.9 µM in test [47]; > 158 µM in test [48]; 39.6 µM (≈ 64 µg/mL) in test [31]; ≥ 39.6 µM in test [49]; 30.9 µM (≈ 50 µg/mL) in test [50]; ≥ 61.9 µM in [51]. Also, the MIC was ≥ 79.2 µM in [52] and 30.9 µM (≈ 50 µg/mL) in [53].

Values taken from DBAASP.
